Earlier results as cited in US20210115268A1, “FUNCTIONALIZED QUATERNARY AMMONIUM HALIDES AND USE THEREOF” (Agency for Science, Technology and Research, priority 2015, published 2021).

Conditions: glass, cotton, polyester fibers or polyurethane foams treated with the silane; after repeated washings

CCCCCCCCCCCCCCCCCC[N+](C)(C)CCC[Si](OC)(OC)OC.[Cl-] [DC 5700, (MeO)3Si(CH2)3N^+Me2C18H37Cl]
algicidal and bactericidal properties, leaching: showed algicidal and bactericidal properties that are maintained after repeated washings and no apparent leaching was observed
